Assay results as given in ChEMBL document CHEMBL4507304, “Data for DCP probe TP-021” (2021).

How the values were obtained:
[1] = tested on: Tyrosine-protein kinase ABL1 (Homo sapiens), P00519 [M351T]; conditions: Compound concentration 1000.0 nM
[2] = target: Tyrosine-protein kinase ABL2 (Homo sapiens) (UniProt P42684); conditions: Compound concentration 1000.0 nM
[3] = target: Activin receptor type-1 (Homo sapiens) (UniProt Q04771); conditions: Compound concentration 1000.0 nM
[4] = target: 5'-AMP-activated protein kinase catalytic subunit alpha-1 (Homo sapiens) (UniProt Q13131); conditions: Compound concentration 1000.0 nM
5'-AMP-activated protein kinase catalytic subunit alpha-1 (Homo sapiens), sequence (Q13131 whole entry, looked up): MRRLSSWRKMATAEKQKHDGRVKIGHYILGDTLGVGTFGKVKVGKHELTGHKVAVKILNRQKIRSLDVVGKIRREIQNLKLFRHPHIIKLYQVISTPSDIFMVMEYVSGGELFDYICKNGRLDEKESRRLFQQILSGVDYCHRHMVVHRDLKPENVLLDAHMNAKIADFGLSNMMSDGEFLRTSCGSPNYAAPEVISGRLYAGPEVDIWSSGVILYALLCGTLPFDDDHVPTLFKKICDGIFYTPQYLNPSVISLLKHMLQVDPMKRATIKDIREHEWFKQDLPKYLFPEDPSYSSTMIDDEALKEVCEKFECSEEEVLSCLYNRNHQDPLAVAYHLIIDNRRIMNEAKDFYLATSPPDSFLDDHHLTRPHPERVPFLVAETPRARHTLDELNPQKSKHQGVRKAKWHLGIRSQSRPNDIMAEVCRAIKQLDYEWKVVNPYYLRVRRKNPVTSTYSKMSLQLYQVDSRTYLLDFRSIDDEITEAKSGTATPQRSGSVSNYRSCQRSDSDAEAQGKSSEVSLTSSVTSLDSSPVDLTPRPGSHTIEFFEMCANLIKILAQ

[5] = target: 5'-AMP-activated protein kinase catalytic subunit alpha-2 (Homo sapiens) (UniProt P54646); conditions: Compound concentration 1000.0 nM
[6] = target: Cyclin-dependent kinase-like 2 (Homo sapiens) (UniProt Q92772); conditions: Compound concentration 1000.0 nM
Cyclin-dependent kinase-like 2 (Homo sapiens), sequence (Q92772 whole entry, canonical isoform): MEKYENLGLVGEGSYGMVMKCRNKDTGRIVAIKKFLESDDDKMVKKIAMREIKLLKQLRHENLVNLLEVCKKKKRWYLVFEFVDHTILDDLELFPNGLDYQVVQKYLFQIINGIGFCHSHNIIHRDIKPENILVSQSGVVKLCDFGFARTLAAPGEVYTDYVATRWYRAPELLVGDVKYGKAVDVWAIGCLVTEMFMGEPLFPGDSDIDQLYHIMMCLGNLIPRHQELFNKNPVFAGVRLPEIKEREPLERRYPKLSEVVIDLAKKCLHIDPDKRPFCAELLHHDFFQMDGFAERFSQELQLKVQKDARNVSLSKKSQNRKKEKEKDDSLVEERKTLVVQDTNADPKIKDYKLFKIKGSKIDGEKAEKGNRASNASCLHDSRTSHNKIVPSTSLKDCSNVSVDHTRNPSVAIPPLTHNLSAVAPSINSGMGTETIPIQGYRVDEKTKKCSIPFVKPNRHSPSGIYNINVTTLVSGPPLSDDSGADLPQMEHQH

[7] = target: Casein kinase I isoform epsilon (Homo sapiens) (UniProt P49674); conditions: Compound concentration 1000.0 nM
[8] = target: Casein kinase II subunit alpha (Homo sapiens) (UniProt P68400); conditions: Compound concentration 1000.0 nM
Casein kinase II subunit alpha (Homo sapiens), sequence (P68400 whole entry, looked up): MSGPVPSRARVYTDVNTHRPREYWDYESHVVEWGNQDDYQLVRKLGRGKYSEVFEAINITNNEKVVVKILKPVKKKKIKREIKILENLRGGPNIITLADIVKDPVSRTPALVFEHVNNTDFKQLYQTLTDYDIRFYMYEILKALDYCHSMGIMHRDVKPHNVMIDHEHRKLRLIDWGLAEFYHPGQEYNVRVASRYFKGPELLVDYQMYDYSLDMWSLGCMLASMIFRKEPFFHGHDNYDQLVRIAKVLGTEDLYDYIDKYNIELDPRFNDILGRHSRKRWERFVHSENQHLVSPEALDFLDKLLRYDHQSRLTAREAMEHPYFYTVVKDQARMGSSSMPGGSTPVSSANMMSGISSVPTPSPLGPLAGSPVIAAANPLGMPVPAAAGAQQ

[9] = target: Ephrin type-B receptor 1 (Homo sapiens) (UniProt P54762); conditions: Compound concentration 1000.0 nM
[10] = target: Ephrin type-B receptor 2 (Homo sapiens) (UniProt P29323); conditions: Compound concentration 1000.0 nM
[11] = target: Mitogen-activated protein kinase 1 (Homo sapiens) (UniProt P28482); conditions: Compound concentration 1000.0 nM
[12] = target: Serine/threonine-protein kinase ICK (Homo sapiens) (UniProt Q9UPZ9); conditions: Compound concentration 1000.0 nM
[13] = target: Inhibitor of nuclear factor kappa-B kinase subunit epsilon (Homo sapiens) (UniProt Q14164); conditions: Compound concentration 1000.0 nM
Inhibitor of nuclear factor kappa-B kinase subunit epsilon (Homo sapiens), sequence (Q14164 whole entry): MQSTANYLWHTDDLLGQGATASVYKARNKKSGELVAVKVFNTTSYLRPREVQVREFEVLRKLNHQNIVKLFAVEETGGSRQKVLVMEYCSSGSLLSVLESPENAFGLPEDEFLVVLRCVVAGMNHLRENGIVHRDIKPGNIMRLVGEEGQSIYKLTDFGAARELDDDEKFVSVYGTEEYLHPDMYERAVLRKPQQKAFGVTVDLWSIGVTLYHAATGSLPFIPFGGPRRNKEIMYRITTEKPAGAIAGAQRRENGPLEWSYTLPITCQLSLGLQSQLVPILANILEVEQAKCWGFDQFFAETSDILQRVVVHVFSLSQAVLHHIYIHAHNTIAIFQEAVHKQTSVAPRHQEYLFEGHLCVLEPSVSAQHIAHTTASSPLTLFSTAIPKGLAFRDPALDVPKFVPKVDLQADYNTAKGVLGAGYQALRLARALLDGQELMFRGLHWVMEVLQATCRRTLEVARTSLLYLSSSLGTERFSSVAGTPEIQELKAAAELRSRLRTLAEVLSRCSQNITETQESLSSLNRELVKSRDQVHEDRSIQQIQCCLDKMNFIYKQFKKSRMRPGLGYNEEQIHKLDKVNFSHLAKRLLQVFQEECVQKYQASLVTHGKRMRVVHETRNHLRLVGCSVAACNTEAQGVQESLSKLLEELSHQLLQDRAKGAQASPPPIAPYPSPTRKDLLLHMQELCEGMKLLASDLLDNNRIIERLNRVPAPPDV

[14] = target: Mitogen-activated protein kinase kinase kinase 1 (Homo sapiens) (UniProt Q13233); conditions: Compound concentration 1000.0 nM
[15] = target: Mitogen-activated protein kinase kinase kinase 4 (Homo sapiens) (UniProt Q9Y6R4); conditions: Compound concentration 1000.0 nM
[16] = target: Dual specificity mitogen-activated protein kinase kinase 5 (Homo sapiens) (UniProt Q13163); conditions: Compound concentration 1000.0 nM
[17] = target: Muscle, skeletal receptor tyrosine-protein kinase (Homo sapiens) (UniProt O15146); conditions: Compound concentration 1000.0 nM
[18] = target: Myosin light chain kinase 2, skeletal/cardiac muscle (Homo sapiens) (UniProt Q9H1R3); conditions: Compound concentration 1000.0 nM
[19] = target: Serine/threonine-protein kinase Nek10 (Homo sapiens) (UniProt Q6ZWH5); conditions: Compound concentration 1000.0 nM
[20] = target: Serine/threonine-protein kinase Nek5 (Homo sapiens) (UniProt Q6P3R8); conditions: Compound concentration 1000.0 nM
[21] = target: Serine/threonine-protein kinase Nek9 (Homo sapiens) (UniProt Q8TD19); conditions: Compound concentration 1000.0 nM
[22] = target: Serine/threonine-protein kinase PAK 2 (Homo sapiens) (UniProt Q13177); conditions: Compound concentration 1000.0 nM
[23] = tested on: Phosphatidylinositol 4,5-bisphosphate 3-kinase catalytic subunit alpha isoform (Homo sapiens), P42336 [H1047L]; conditions: Compound concentration 1000.0 nM
[24] = tested on: Phosphatidylinositol 4,5-bisphosphate 3-kinase catalytic subunit alpha isoform (Homo sapiens), P42336 [H1047Y]; conditions: Compound concentration 1000.0 nM
[25] = target: Phosphatidylinositol 4,5-bisphosphate 3-kinase catalytic subunit gamma isoform (Homo sapiens) (UniProt P48736); conditions: Compound concentration 1000.0 nM
[26] = target: Serine/threonine-protein kinase N2 (Homo sapiens) (UniProt Q16513); conditions: Compound concentration 1000.0 nM
[27] = target: Serine/threonine-protein kinase PLK3 (Homo sapiens) (UniProt Q9H4B4); conditions: Compound concentration 1000.0 nM
[28] = target: Protein kinase C delta type (Homo sapiens) (UniProt Q05655); conditions: Compound concentration 1000.0 nM
Protein kinase C delta type (Homo sapiens), sequence (Q05655 whole entry, looked up): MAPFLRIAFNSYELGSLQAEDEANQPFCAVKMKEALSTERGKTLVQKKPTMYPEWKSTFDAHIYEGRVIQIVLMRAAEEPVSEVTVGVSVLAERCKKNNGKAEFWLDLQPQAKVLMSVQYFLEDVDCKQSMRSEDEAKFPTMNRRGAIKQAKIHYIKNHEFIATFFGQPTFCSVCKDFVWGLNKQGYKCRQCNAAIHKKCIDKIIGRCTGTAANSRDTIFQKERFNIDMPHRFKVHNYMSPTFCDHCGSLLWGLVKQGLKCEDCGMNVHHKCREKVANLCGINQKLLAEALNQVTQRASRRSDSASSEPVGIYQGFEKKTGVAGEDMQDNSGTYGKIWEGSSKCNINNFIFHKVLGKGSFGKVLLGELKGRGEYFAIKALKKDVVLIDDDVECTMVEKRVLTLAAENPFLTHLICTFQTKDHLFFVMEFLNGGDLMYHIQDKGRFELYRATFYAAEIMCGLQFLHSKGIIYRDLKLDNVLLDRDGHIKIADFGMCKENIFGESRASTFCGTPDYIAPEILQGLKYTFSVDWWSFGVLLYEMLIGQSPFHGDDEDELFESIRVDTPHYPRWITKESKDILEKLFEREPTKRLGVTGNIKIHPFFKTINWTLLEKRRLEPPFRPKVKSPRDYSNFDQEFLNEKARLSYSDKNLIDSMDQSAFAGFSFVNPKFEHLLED

[29] = target: Protein kinase C theta type (Homo sapiens) (UniProt Q04759); conditions: Compound concentration 1000.0 nM
[30] = target: Receptor-interacting serine/threonine-protein kinase 1 (Homo sapiens) (UniProt Q13546); conditions: Compound concentration 1000.0 nM
[31] = target: NUAK family SNF1-like kinase 2 (Homo sapiens) (UniProt Q9H093); conditions: Compound concentration 1000.0 nM
NUAK family SNF1-like kinase 2 (Homo sapiens), sequence (Q9H093 whole entry): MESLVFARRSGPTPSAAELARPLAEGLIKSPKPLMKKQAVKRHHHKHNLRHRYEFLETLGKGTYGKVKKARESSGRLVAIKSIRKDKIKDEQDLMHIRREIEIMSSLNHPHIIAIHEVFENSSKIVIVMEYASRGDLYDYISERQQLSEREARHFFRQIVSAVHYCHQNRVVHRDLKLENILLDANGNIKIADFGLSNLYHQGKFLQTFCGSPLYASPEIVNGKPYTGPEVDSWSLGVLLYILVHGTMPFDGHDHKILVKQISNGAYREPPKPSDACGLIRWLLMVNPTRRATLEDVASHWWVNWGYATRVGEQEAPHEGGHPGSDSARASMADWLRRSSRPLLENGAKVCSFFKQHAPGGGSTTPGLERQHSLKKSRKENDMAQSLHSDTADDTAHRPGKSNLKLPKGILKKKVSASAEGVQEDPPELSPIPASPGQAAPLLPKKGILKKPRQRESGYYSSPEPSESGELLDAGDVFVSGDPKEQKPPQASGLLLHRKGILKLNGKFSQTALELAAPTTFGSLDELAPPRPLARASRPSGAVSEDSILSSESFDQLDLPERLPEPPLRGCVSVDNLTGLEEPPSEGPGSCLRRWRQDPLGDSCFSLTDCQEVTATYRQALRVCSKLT

[32] = target: Proto-oncogene tyrosine-protein kinase Src (Homo sapiens) (UniProt P12931); conditions: Compound concentration 1000.0 nM
[33] = target: STE20/SPS1-related proline-alanine-rich protein kinase (Homo sapiens) (UniProt Q9UEW8); conditions: Compound concentration 1000.0 nM
[34] = target: Serine/threonine-protein kinase TBK1 (Homo sapiens) (UniProt Q9UHD2); conditions: Compound concentration 1000.0 nM
Serine/threonine-protein kinase TBK1 (Homo sapiens), sequence (Q9UHD2 whole entry): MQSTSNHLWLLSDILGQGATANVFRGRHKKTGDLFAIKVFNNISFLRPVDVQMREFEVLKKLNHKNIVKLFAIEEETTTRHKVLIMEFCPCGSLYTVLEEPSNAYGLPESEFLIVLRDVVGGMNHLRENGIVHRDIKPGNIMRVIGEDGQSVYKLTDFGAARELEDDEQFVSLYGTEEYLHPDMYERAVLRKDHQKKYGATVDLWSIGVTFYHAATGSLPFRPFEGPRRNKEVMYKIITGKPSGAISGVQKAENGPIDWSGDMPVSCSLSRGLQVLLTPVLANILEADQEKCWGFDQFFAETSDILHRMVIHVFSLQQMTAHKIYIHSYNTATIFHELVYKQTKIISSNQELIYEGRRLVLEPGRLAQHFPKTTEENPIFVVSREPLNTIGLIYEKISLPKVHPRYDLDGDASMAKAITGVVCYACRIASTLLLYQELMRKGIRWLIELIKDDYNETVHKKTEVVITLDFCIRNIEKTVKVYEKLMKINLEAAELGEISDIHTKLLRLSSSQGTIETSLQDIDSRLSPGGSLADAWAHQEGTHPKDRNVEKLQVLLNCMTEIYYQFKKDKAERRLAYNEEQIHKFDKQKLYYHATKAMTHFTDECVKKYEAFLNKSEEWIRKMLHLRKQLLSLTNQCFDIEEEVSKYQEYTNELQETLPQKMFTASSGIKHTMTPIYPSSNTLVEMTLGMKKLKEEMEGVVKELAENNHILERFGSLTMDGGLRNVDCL

[35] = target: High affinity nerve growth factor receptor (Homo sapiens) (UniProt P04629); conditions: Compound concentration 1000.0 nM
[36] = target: Dual specificity protein kinase TTK (Homo sapiens) (UniProt P33981); conditions: Compound concentration 1000.0 nM
Dual specificity protein kinase TTK (Homo sapiens), sequence (P33981 whole entry): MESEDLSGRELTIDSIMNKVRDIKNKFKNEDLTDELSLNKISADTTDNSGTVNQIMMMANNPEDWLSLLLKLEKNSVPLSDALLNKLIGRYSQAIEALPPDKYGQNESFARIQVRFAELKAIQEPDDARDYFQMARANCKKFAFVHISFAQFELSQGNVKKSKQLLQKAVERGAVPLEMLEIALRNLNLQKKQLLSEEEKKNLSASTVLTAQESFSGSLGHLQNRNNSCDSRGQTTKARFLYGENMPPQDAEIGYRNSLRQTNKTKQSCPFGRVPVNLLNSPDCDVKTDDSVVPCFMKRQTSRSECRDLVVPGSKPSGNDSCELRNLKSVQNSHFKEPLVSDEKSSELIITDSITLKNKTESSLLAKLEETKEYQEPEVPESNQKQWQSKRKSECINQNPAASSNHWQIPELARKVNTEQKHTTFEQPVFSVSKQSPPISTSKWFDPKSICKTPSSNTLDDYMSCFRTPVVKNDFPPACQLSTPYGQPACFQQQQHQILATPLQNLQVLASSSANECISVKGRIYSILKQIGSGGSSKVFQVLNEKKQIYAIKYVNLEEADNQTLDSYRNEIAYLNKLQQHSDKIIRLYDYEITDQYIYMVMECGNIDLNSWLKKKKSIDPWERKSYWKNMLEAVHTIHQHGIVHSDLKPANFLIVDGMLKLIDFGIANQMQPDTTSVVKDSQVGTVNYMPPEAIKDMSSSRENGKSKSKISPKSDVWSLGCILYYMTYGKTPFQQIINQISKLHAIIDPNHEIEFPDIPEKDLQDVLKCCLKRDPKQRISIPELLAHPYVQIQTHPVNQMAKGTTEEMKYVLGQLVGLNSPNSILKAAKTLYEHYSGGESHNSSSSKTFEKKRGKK

[37] = target: 5-hydroxytryptamine receptor 1B (Homo sapiens) (UniProt P28222); conditions: Compound concentration 10.0 uM
[38] = target: 5-hydroxytryptamine receptor 7 (Homo sapiens) (UniProt P34969); conditions: Compound concentration 10.0 uM
[39] = target: Delta-type opioid receptor (Homo sapiens) (UniProt P41143); conditions: Compound concentration 10.0 uM
[40] = target: Kappa-type opioid receptor (Homo sapiens) (UniProt P41145); conditions: Compound concentration 10.0 uM
[41] = target: GABA-A receptor; anion channel (Rattus norvegicus) (UniProt O09028+P15431+P18506+P18508+P19969+P20236+P23574+P23576+P28471+P28473+P30191+P62813+P63079+P63138+Q91ZM7+Q9ES14); conditions: Compound concentration 10.0 uM
[42] = target: Histamine H4 receptor (Homo sapiens) (UniProt Q9H3N8); conditions: Compound concentration 10.0 uM
[43] = target: Muscarinic acetylcholine receptor M2 (Homo sapiens) (UniProt P08172); conditions: Compound concentration 10.0 uM

N#Cc1ccc(Nc2ccc3[nH]c(=O)[nH]c3c2)c(Cl)c1
inactive: residual activity [1] 100% | residual activity [2] 93% | residual activity [3] 89% | residual activity [4] 100% | residual activity [5] 81% | residual activity [6] 100% | residual activity [7] 94% | residual activity [8] 80% | residual activity [9] 93% | residual activity [10] 70% | residual activity [11] 100% | residual activity [12] 97% | residual activity [13] 100% | residual activity [14] 79% | residual activity [15] 95% | residual activity [16] 100% | residual activity [17] 100% | residual activity [18] 99% | residual activity [19] 100% | residual activity [20] 100% | residual activity [21] 96% | residual activity [22] 79% | residual activity [23] 78% | residual activity [24] 100% | residual activity [25] 92% | residual activity [26] 76% | residual activity [27] 84% | residual activity [28] 100% | residual activity [29] 90% | residual activity [30] 100% | residual activity [31] 100% | residual activity [32] 92% | residual activity [33] 100% | residual activity [34] 100% | residual activity [35] 93% | residual activity [36] 88% | inhibition [37] 6.7% | inhibition [38] 8.12% | inhibition [39] -0.28% | inhibition [40] 8.98% | inhibition [41] 15.5% | inhibition [42] 4.43% | inhibition [43] 3.51%

O=C1CCc2cc(Nc3cc(OC4CCOCC4)c([N+](=O)[O-])cc3Cl)ccc2N1
inactive: residual activity [1] 100% | residual activity [2] 79% | residual activity [3] 100% | residual activity [4] 100% | residual activity [5] 100% | residual activity [6] 92% | residual activity [7] 100% | residual activity [8] 84% | residual activity [9] 83% | residual activity [10] 96% | residual activity [11] 99% | residual activity [12] 100% | residual activity [13] 90% | residual activity [14] 65% | residual activity [15] 85% | residual activity [16] 100% | residual activity [17] 100% | residual activity [18] 90% | residual activity [19] 100% | residual activity [20] 96% | residual activity [21] 80% | residual activity [22] 96% | residual activity [23] 78% | residual activity [24] 100% | residual activity [25] 75% | residual activity [26] 100% | residual activity [27] 88% | residual activity [28] 100% | residual activity [29] 92% | residual activity [30] 100% | residual activity [31] 89% | residual activity [32] 100% | residual activity [33] 100% | residual activity [34] 100% | residual activity [35] 94% | residual activity [36] 87% | inhibition [37] 14.3% | inhibition [38] 12.3% | inhibition [39] 3.32% | inhibition [40] 12.4% | inhibition [41] 12.7% | inhibition [42] 11.6% | inhibition [43] 5.41%
